#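 At the GI50, growth is halved. Definition used: TGI = concentration required for complete inhibition of growth.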
# Tests used:
# Assay in all cases: NCI tumour cell line growth inhibition, 384-well format
# [1] = test system: A549 NSCLC
# [2] = test system: BT-549 breast
# [3] = test system: CAKI-1 renal
# [4] = test system: CCRF-CEM leukemia
# [5] = test system: COLO 205 colon
# [6] = test system: EKVX NSCLC
# [7] = test system: HCC-2998 colon
# [8] = test system: HL-60(TB) leukemia
# [9] = test system: HOP-62 NSCLC
# [10] = test system: HS 578T breast
# [11] = test system: KM12 colon
# [12] = test system: LOX IMVI melanoma
# [13] = test system: M14 melanoma
# [14] = test system: MALME-3M melanoma
# [15] = test system: MDA-MB-435 melanoma
# [16] = test system: MDA-MB-468 breast
# [17] = test system: MOLT-4 leukemia
# [18] = test system: NCI-H226 lung
# [19] = test system: NCI-H23 lung
# [20] = test system: NCI-H322M lung
# [21] = test system: NCI-H460 NSCLC
# [22] = test system: NCI-H522 lung
# [23] = test system: NCI/ADR-RES ovarian
# [24] = test system: OVCAR-3 ovarian
# [25] = test system: OVCAR-4 ovarian
# [26] = test system: OVCAR-5 ovarian
# [27] = test system: OVCAR-8 ovarian
# [28] = test system: RPMI-8226 leukemia
# [29] = test system: RXF 393 renal
# [30] = test system: SF-268 CNS
# [31] = test system: SF-539 CNS
# [32] = test system: SK-MEL-28 melanoma
# [33] = test system: SK-MEL-5 melanoma
# [34] = test system: SN12C renal
# [35] = test system: SNB-19 CNS
# [36] = test system: SNB-75 CNS
# [37] = test system: SR leukemia
# [38] = test system: SW-620 colon
# [39] = test system: TK-10 renal
# [40] = test system: UACC-257 melanoma
# [41] = test system: UACC-62 melanoma
# [42] = test system: UO-31 renal
structure (smiles),measurement,setting,value
CN1CC[C@@H](c2c(O)cc(O)c3c(=O)cc(-c4ccccc4Cl)oc23)[C@@H](O)C1,GI50,[1],0.0349 µM
same,TGI,[1],> 100 µM
same,GI50,[2],0.0256 µM
same,TGI,[2],0.0908 µM
same,GI50,[3],0.0351 µM
same,TGI,[3],> 100 µM
same,GI50,[4],0.0194 µM
same,TGI,[4],0.0361 µM
same,GI50,[5],0.0313 µM
same,TGI,[5],0.0824 µM
same,GI50,[6],0.0599 µM
same,TGI,[6],0.299 µM
same,GI50,[7],0.0424 µM
same,TGI,[7],0.151 µM
same,GI50,[8],0.0133 µM
same,TGI,[8],0.0263 µM
same,GI50,[9],0.0202 µM
same,TGI,[9],0.0456 µM
same,GI50,[10],0.0228 µM
same,TGI,[10],0.0479 µM
same,GI50,[11],0.0279 µM
same,TGI,[11],0.244 µM
same,GI50,[12],0.0208 µM
same,TGI,[12],0.0632 µM
same,GI50,[13],0.0325 µM
same,TGI,[13],0.116 µM
same,GI50,[14],0.0425 µM
same,TGI,[14],0.141 µM
same,GI50,[15],0.103 µM
same,TGI,[15],0.255 µM
same,GI50,[16],0.0283 µM
same,TGI,[16],0.0874 µM
same,GI50,[17],0.0237 µM
same,TGI,[17],0.045 µM
same,GI50,[18],0.0187 µM
same,TGI,[18],0.0639 µM
same,GI50,[19],0.0301 µM
same,TGI,[19],0.112 µM
same,GI50,[20],0.0337 µM
same,TGI,[20],0.126 µM
same,GI50,[21],0.0215 µM
same,TGI,[21],0.0496 µM
same,GI50,[22],0.109 µM
same,TGI,[22],0.252 µM
same,GI50,[23],0.0896 µM
same,TGI,[23],0.319 µM
same,GI50,[24],0.0331 µM
same,TGI,[24],0.095 µM
same,GI50,[25],0.0596 µM
same,TGI,[25],0.282 µM
same,GI50,[26],0.0242 µM
same,TGI,[26],0.0708 µM
same,GI50,[27],0.025 µM
same,TGI,[27],0.078 µM
same,GI50,[28],0.0227 µM
same,TGI,[28],0.0513 µM
same,GI50,[29],0.0191 µM
same,TGI,[29],0.0386 µM
same,GI50,[30],0.0178 µM
same,TGI,[30],0.0386 µM
same,GI50,[31],0.0247 µM
same,TGI,[31],0.072 µM
same,GI50,[32],0.0285 µM
same,TGI,[32],0.132 µM
same,GI50,[33],0.0298 µM
same,TGI,[33],0.0568 µM
same,GI50,[34],0.028 µM
same,TGI,[34],0.0911 µM
same,GI50,[35],0.0503 µM
same,TGI,[35],> 100 µM
same,GI50,[36],0.113 µM
same,TGI,[36],0.244 µM
same,GI50,[37],0.0102 µM
same,TGI,[37],0.0222 µM
same,GI50,[38],0.0348 µM
same,TGI,[38],0.204 µM
same,GI50,[39],0.0357 µM
same,TGI,[39],> 100 µM
same,GI50,[40],0.0515 µM
same,TGI,[40],0.173 µM
same,GI50,[41],0.0178 µM
same,TGI,[41],0.0407 µM
same,GI50,[42],0.036 µM
same,TGI,[42],> 100 µM

# Reference: PubChem BioAssay (NCI)
